Data as given in patent US20050197407A1, “Method and preparation for reducing irritation and/or inflammatory reaction in human skin” (PCR Technology Holdings, LC, priority 2004, published 2005).

Tested on: facial skin of humans
Experiment: Retinoid irritation test: idebenone pre-treatment then prescription retinoid, clinician grading and TEWL
Type: in vivo
Protocol: In a test, idebenone was applied to the facial skin of humans. Two different test sites were setup whereby, one site was applied with idebenone twice a day for 2 weeks followed by a 2 week application period of a prescription retinoid (once a day, as prescribed). The remaining site was applied for 2 weeks just the prescription retinoid (once a day, as prescribed). Each test site was evaluated by a trained clinician for irritation and roughness using a 0 (none) to 4 (severe) scale pre and post retinoid treatment. Additionally, transepidermal water loss measurements (TEWL) were also made at the same time as visual evaluations.
FIG. 1 graphically depicts the results of the test.

[1] = facial skin, pre vs post 2 week retinoid treatment once a day, idebenone site pre-treated twice a day for 2 weeks

COC1=C(OC)C(=O)C(CCCCCCCCCCO)=C(C)C1=O [Idebenone, 6-(10-hydroxydecyl)-2,3-dimethoxy-5-methyl-1,4-benzoquinone]
increase in irritation (0 (none) to 4 (severe) scale, trained clinician) [1]: moderate to minimal increase
increase in roughness (0 (none) to 4 (severe) scale, trained clinician) [1]: moderate to minimal increase
increase in transepidermal water loss measurements (TEWL) [1]: moderate to minimal increase
irritation potential produced by the prescription retinoid (idebenone used as a pre-treatment for 2 weeks): significantly reduced
